Test [1] is described as follows: Antioxidant activity assessed as ferric ion reducing activity at 20 to 320 umol after 20 mins by FRAP assay. The class given is functional.
Test [2] relates to MCF7. Description: Antiproliferative activity against human MCF7 cells after 72 hrs by MTT assay. Format: functional, cell-based. The settings on record: MCF7, 72 h.
The subject of test [3] is HEK293. Description: Antiproliferative activity against human HEK293 cells after 72 hrs by MTT assay. Conditions: HEK293, 72 h. The class given is cell-based.
Test [4] relates to M14. As to the kind of experiment: Antiproliferative activity against human M14 cells after 72 hrs by MTT assay. The settings on record: M14, 72 h. The class given is functional, cell-based.
The test system of test [5] is HCT-116. As to the kind of experiment: Antiproliferative activity against human HCT116 cells after 72 hrs by MTT assay. Format: functional, cell-based. Conditions: HCT-116, 72 h.
The test system of test [6] is MDA-MB-231. As to the kind of experiment: Antiproliferative activity against human MDA-MB-231 cells after 72 hrs by MTT assay. Format: functional, cell-based. Conditions: MDA-MB-231, 72 h. For orientation: Formazan colour is commonly taken as a measure of viable cells.
Test [7] relates to OVCAR-4. As to the kind of experiment: Antiproliferative activity against human OVCAR4 cells after 72 hrs by MTT assay. Conditions: OVCAR-4, 72 h. The class given is functional, cell-based.
Test [8] concerns HCT-15. Description: Antiproliferative activity against human HCT15 cells after 72 hrs by MTT assay. The class given is functional, cell-based. Conditions: HCT-15, 72 h.
The subject of test [9] is A498. Description: Antiproliferative activity against human A498 cells after 72 hrs by MTT assay. Format: functional, cell-based. The settings on record: A498, 72 h.
Test [10] concerns SNB-19. As to the kind of experiment: Antiproliferative activity against human SNB19 cells after 72 hrs by MTT assay. Format: functional, cell-based. Conditions: SNB-19, 72 h.
For test [11], the system named is PC-3. As to the kind of experiment: Antiproliferative activity against human PC3 cells after 72 hrs by MTT assay. Format: functional, cell-based. Conditions: PC-3, 72 h.
A short description of test [12]: Antiproliferative activity against HSF cells after 72 hrs by MTT assay. Conditions: Homo sapiens. Format: cell-based.
Test [13] has as its system NCI-H322M. As to the kind of experiment: Antiproliferative activity against human NCI-H322M cells after 72 hrs by MTT assay. Format: functional, cell-based.

The structures appear in SMILES notation. The source made the active and inactive calls. No cut-off for these calls is given here.

Turning to `O=C1O[C@H]([C@@H](O)CO)C(O)=C1O`, the result in test [1] was Active.

With `CCCCCCCCCC(C)C1OCc2c(/C=C/C(C)=O)cnc(C)c2O1` (centres undefined), the IC50 (usually the concentration that inhibits the measured activity by half) in [2] worked out at 2.4 µM; in test [3] it was 7 µM.

For the molecule `CCCC1OCc2c(/C=C/C(C)=O)nc(C)c(O)c2CO1` (centres undefined), the values for the IC50 in [2] and in test [3] were 4.6 µM and 13 µM, respectively.

As to `COc1cccc2c1C(=O)c1c(O)c3c(c(O)c1C2=O)C[C@@](O)(C(=O)CO)C[C@@H]3O[C@H]1C[C@H](N)[C@H](O)[C@H](C)O1` [DOXORUBICIN], the IC50 in test [4] was found to be 3.4 µM; in test [5] it was 0.4 µM; in test [6], 0.3 µM; in test [3] it was 1.2 µM; in test [7] it was 0.15 µM; in test [8], 2.2 µM. The IC50 in test [9] worked out at 6.1 µM; in [10], 0.15 µM; in test [11] it was 0.23 µM; in test [12], 2.2 µM; in test [13] it was 29 µM.

As for `CC(=O)/C=C/c1cnc(C)c(O)c1CO`, the figures for the IC50 in test [2] and in test [3] were 398 µM and 121 µM, respectively.

In the case of `CC(=O)/C=C/c1cnc(C)c2c1COC1(CCCC1)O2`, the IC50 in [2] amounted to 7.2 µM; in test [3], 17 µM.

On to `CCCCCCCCCC(C)C1OCc2c(/C=C/C(C)=O)nc(C)c(O)c2CO1` (centres undefined), for which the half-inhibitory concentration (IC50) in test [2] was determined as 2.9 µM; in test [3], 1.4 µM.

As to `CC(=O)/C=C/c1nc(C)c(O)c2c1COC(C)(C)OC2`, the IC50 in [2] amounted to 27 µM; in test [3], 38 µM.

For the molecule `CCCCC1OCc2c(/C=C/C(C)=O)cnc(C)c2O1` (centres undefined), the figures for the IC50 in [2] and in [3] were 1.3 µM and 13 µM, respectively.

In the case of `O=c1c(O)c(-c2ccc(O)c(O)c2)oc2cc(O)cc(O)c12`, the result in test [1] was Active.

Consider `CCCC1OCc2c(/C=C/C(C)=O)cnc(C)c2O1` (centres undefined), for which the IC50 in [2] worked out at 2.2 µM; in [3], 2.9 µM.

With `COc1cc(/C=C/C(=O)CC(=O)/C=C/c2ccc(O)c(OC)c2)ccc1O`, the result in test [1] was Active.

For `CC(=O)/C=C/c1cnc(C)c2c1COC(C(C)(C)C)O2` (centres undefined), the values for the IC50 in [2] and in [3] were 4.1 µM and 1.2 µM, respectively.

As for `CC(=O)/C=C/c1cnc(C)c2c1COC(C)(C)O2`, the results for the IC50 in test [2] and in test [3] were 6.6 µM and 17 µM, respectively.

(Values after ChEMBL document CHEMBL4261654, “Synthesis and in vitro antitumor activity of novel alkenyl derivatives of pyridoxine, bioisosteric analogs of feruloyl methane” (Bioorg Med Chem, 2018).)
